“And” between values parts separate entries of the source, which are not always exact repeats. Identical values can stand only once. Like-named read-outs stand apart in the source and are kept apart here.
What was measured:
Test in all cases: Synergy test, high resolution MIC microtiter plate assay
Format in all cases: cell-based
[1] = test system: Staphylococcus aureus (S. aureus—ATCC #6538); conditions: for MIC of component acting alone (end point): S. aureus, Ag-polymer on active silver ion basis; for MIC: Staphylococcus aureus, read-out: MIC of component acting alone (end point)
Description: (§1) One measure of synergism is the industrially accepted method described by Kull, F. C.; Eisman, P. C.; Sylwestrowicz, H. D. and Mayer, R. L., in Applied Microbiology 9:538-541 (1961), using the ratio determined by the formula: Ca/CA+Cb/CB=Synergy Index (“SI”) wherein:
(§2) CA=concentration of compound A (first component) in ppm, acting alone, which produced an end point (MIC of Compound A).
(§3) Ca=concentration of compound A in ppm, in the mixture, which produced an end point.
(§4) CB=concentration of compound B (second component) in ppm, acting alone, which produced an end point (MIC of Compound B).
(§5) Cb=concentration of compound B in ppm, in the mixture, which produced an end point.
(§6) When the sum of Ca/CA and Cb/CB is greater than one, antagonism is indicated. […] The lower the SI, the greater the synergy shown by that particular mixture. The minimum inhibitory concentration (MIC) of an antimicrobial compound is the lowest concentration tested under a specific set of conditions that prevents the growth of added microorganisms.
(§7) Synergy tests were conducted using standard microtiter plate assays with media designed for optimal growth of the test microorganism. Soybean Casein Digest Broth (Tryptic Soy Broth, TSB medium) or minimal salt medium supplemented with 0.2% glucose and 0.1% yeast extract (M9GY medium) was used for testing bacteria; Potato Dextrose Broth (PDB medium) was used for testing yeast and mold. In this method, a wide range of combinations of microbicides was tested by conducting high resolution MIC assays in the presence of various concentrations of the biocides. High resolution MICs were determined by adding varying amounts of microbicide to one column of a microtitre plate and doing subsequent ten-fold dilutions using an automated liquid handling system.
(§8) The bacteria were used at a concentration of about 1-6×10^6 bacteria per mL and the yeast and mold at 1-5×10^5 fungi per mL. These microorganisms are representative of natural contaminants in many consumer and industrial applications. […] (yeast and mold) or 30° C. (bacteria).

[2] = test system: Aspergillus niger (A. niger—ATCC 16404); conditions: for MIC of component acting alone (end point): A. niger, Ag-polymer on active silver ion basis; for MIC: Aspergillus niger, read-out: MIC of component acting alone (end point)
Description: as §1, §2, §3, §4, §5, §6, §7, §8

[3] = test system: Pseudomonas aeruginosa (P. aeruginosa—ATCC #15442); conditions: for MIC of component acting alone (end point): P. aeruginosa, Ag-polymer on active silver ion basis
Description: as §1, §2, §3, §4, §5, §6, §7, §8

[4] = test system: Candida albicans (C. albicans—ATCC 10231); conditions: for Ca (Component A in combination): Hydrogen Peroxide combined with Ag-polymer formulation; for MIC of component acting alone (end point): C. albicans, Ag-polymer on active silver ion basis; for MIC: Candida albicans, read-out: MIC of component acting alone (end point)
Description: as §1, §2, §3, §4, §5, §6, §7
(§9) […]. The bacteria were used at a concentration of about 1-6×10^6 bacteria per mL and the yeast and mold at 1-5×10^5 fungi per mL. These microorganisms are representative of natural contaminants in many consumer and industrial applications. […] (yeast and mold) or 30° C. (bacteria).
(§10) The end point values in the following examples for the silver-polymer complex are reported on an active silver ion basis.

[5] = test system: Esherichia coli (E. coli—ATCC #8739); conditions: Ag-polymer on active silver ion basis
Description: as §1, §2, §3, §4, §5, §6, §7, §9, §10

[6] = test system: Samonella choleraesuis (S. choleraesuis—ATCC #10708); conditions: S. choleraesuis, contact time 48 hour; Ag-polymer on active silver ion basis
Description: as §1, §2, §3, §4, §5, §6, §7
The synergy of the combinations of the present invention was determined against four bacteria, gram positive Staphylococcus aureus (S. aureus—ATCC #6538) and gram negative Pseudomonas aeruginosa (P. aeruginosa—ATCC #15442), Samonella choleraesuis (S. choleraesuis—ATCC #10708) and Esherichia coli (E. coli—ATCC #8739), a yeast, Candida albicans (C. albicans—ATCC 10231), and a mold, Aspergillus niger (A. niger—ATCC 16404). The bacteria were used at a concentration of about 1-6×10^6 bacteria per mL and the yeast and mold at 1-5×10^5 fungi per mL. These microorganisms are representative of natural contaminants in many consumer and industrial applications. […] (yeast and mold) or 30° C. (bacteria).
as §10

[7] = Table 13, 3-Iodo-2-propynyl butylcarbamate alone, contact time 24 hour
[8] = Table 13, 3-Iodo-2-propynyl butylcarbamate alone, contact time 48 hour
[9] = 5-Chloro-2-(2,4-dichlorophenoxy)phenol combined with Ag-polymer formulation, contact time 48 hour
[10] = Table 12, 5-Chloro-2-(2,4-dichlorophenoxy)phenol alone, contact time 24 hour
[11] = Table 12, 5-Chloro-2-(2,4-dichlorophenoxy)phenol alone, contact time 48 hour
[12] = Table 9, Hydrogen Peroxide alone, contact time 24 hour
[13] = Table 9, Hydrogen Peroxide alone, contact time 48 hour
[14] = Hydrogen Peroxide combined with Ag-polymer formulation, contact time 24 hour
[15] = Table 10, Sodium hypochlorite alone, as Free Cl2, contact time 24 hour
[16] = Table 10, Sodium hypochlorite alone, as Free Cl2, contact time 48 hour
[17] = Sodium hypochlorite (as Free Cl2) combined with Ag-polymer formulation, contact time 48 hour
[18] = Table 11, Glutaraldehyde alone, contact time 24 hour
[19] = Table 11, Glutaraldehyde alone, contact time 48 hour

With `CCCCNC(=O)OCC#CI` [3-Iodo-2-propynyl butylcarbamate] the “Ca (Component A alone)” value [1, 7] was 14, the “Ca (Component A alone)” value [1, 8] was 14 and the “Ca (Component A alone)” value ([2]; Table 13, 3-Iodo-2-propynyl butylcarbamate alone, contact time 3 days) was 0.4. For the same molecule, the “Ca (Component A alone)” value ([2]; Table 13, 3-Iodo-2-propynyl butylcarbamate alone, contact time 7 days) was 0.8, the “Ca (Component A in combination)” value ([3]; 3-Iodo-2-propynyl butylcarbamate combined with Ag-polymer formulation, contact time 24 hour) was 850 and the “Ca (Component A in combination)” value ([3]; 3-Iodo-2-propynyl butylcarbamate combined with Ag-polymer formulation, contact time 48 hour) was 1050. For the same molecule, the “Ca (Component A alone)” value [3, 7] was 1050 and the “Ca (Component A alone)” value [3, 8] was 1300.
With `Oc1cc(Cl)ccc1Oc1ccc(Cl)cc1Cl` [5-Chloro-2-(2,4-dichlorophenoxy)phenol] the “Ca (Component A in combination)” value [1, 9] was 9 and 7, the “Ca (Component A alone)” value [1, 10] was 9 and the “Ca (Component A alone)” value [1, 11] was 11. For the same molecule, the “Ca (Component A in combination)” value ([2]; 5-Chloro-2-(2,4-dichlorophenoxy)phenol combined with Ag-polymer formulation, contact time 3 days) was 7, the “Ca (Component A alone)” value ([2]; Table 12, 5-Chloro-2-(2,4-dichlorophenoxy)phenol alone, contact time 3 days) was 9 and the “Ca (Component A alone)” value ([2]; Table 12, 5-Chloro-2-(2,4-dichlorophenoxy)phenol alone, contact time 7 days) was 30. For the same molecule, the “Ca (Component A in combination)” value ([3]; 5-Chloro-2-(2,4-dichlorophenoxy)phenol combined with Ag-polymer formulation, contact time 24 hour) was 20, the “Ca (Component A in combination)” value [3, 9] was 30 and 20 and the “Ca (Component A alone)” value [3, 10] was 30. The “Ca (Component A alone)” value [3, 11] was 43.
`OO` [Hydrogen Peroxide] was tested, and the “Ca (Component A in combination)” value ([4]; contact time 24 hour) was 105 and 85, the “Ca (Component A in combination)” value ([4]; contact time 48 hour) was 85 and the “Ca (Component A alone)” value [4, 12] was 130. For the same molecule, the “Ca (Component A alone)” value [4, 13] was 130, the “Ca (Component A in combination)” value [1, 14] was 53 and 39 and the “Ca (Component A alone)” value [1, 12] was 66. For the same molecule, the “Ca (Component A alone)” value [1, 13] was 180, the “Ca (Component A in combination)” value ([2]; Hydrogen Peroxide combined with Ag-polymer formulation, contact time 7 days) was 1300 and 1050 and the “Ca (Component A alone)” value ([2]; Table 9, Hydrogen Peroxide alone, contact time 3 days) was 1300. The “Ca (Component A alone)” value ([2]; Table 9, Hydrogen Peroxide alone, contact time 7 days) was 1750, the “Ca (Component A in combination)” value [3, 14] was 255 and the “Ca (Component A in combination)” value ([3]; Hydrogen Peroxide combined with Ag-polymer formulation, contact time 48 hour) was 390 and 315 and 255. The “Ca (Component A alone)” value [3, 12] was 315 and the “Ca (Component A alone)” value [3, 13] was 525.
`OCl` [Sodium hypochlorite] was tested, and the “Ca (Component A alone)” value [4, 15] was 0.9, the “Ca (Component A alone)” value [4, 16] was 2 and the “Ca (Component A in combination)” value [1, 17] was 0.5. For the same molecule, the “Ca (Component A alone)” value [1, 15] was 0.4, the “Ca (Component A alone)” value [1, 16] was 0.7 and the “Ca (Component A alone)” value ([2]; Table 10, Sodium hypochlorite alone, as Free Cl2, contact time 3 days) was 26. For the same molecule, the “Ca (Component A alone)” value ([2]; Table 10, Sodium hypochlorite alone, as Free Cl2, contact time 7 days) was 35, the “Ca (Component A in combination)” value ([3]; Sodium hypochlorite (as Free Cl2) combined with Ag-polymer formulation, contact time 24 hour) was 0.5 and the “Ca (Component A in combination)” value [3, 17] was 0.7. The “Ca (Component A alone)” value [3, 15] was 0.7 and the “Ca (Component A alone)” value [3, 16] was 0.9.
In the case of `CC(C)(C)CC(C)(C)c1ccc(OCCOCC[N+](C)(C)Cc2ccccc2)cc1.[Cl-]` [diisobutylphenoxyethoxyethyl dimethylbenzylammonium chloride, reference compound], the “MIC of component acting alone (end point)” value (shortened to “MIC … (end point)”) ([5]; contact time 24 hour) is reported as 19.4 ppm, the “MIC … (end point)” value ([4]; contact time 48 hour) is reported as 28.8 ppm and the “MIC … (end point)” value ([1]; contact time 24 hour) is reported as 28.8 ppm. The “MIC … (end point)” value ([1]; contact time 48 hour) was 40.3 ppm and the “MIC … (end point)” value ([2]; contact time 7 days) was 40.3 ppm.
`O=c1[nH]sc2ccccc12` [Benzisothiazolin-3-one, reference compound] was tested, and the “MIC … (end point)” value ([4]; contact time 24 hour) was 30 ppm, the “MIC … (end point)” value ([4]; contact time 48 hour) was 30 ppm and the “MIC … (end point)” value ([1]; contact time 24 hour) was 20 ppm. For the same molecule, the “MIC … (end point)” value ([1]; contact time 48 hour) was 20 ppm, the “MIC … (end point)” value ([2]; contact time 3 days) was 43 ppm and the “MIC … (end point)” value ([2]; contact time 7 days) was 53 ppm. The “MIC … (end point)” value ([3]; contact time 24 hour) was 4 ppm and the “MIC … (end point)” value ([3]; contact time 48 hour) was 7 ppm.
In the case of “C12-C16 alkyl dimethylbenzylammonium chloride [reference compound]”, the “MIC … (end point)” value ([5]; contact time 48 hour) is reported as 4.9 ppm, the “MIC … (end point)” value ([4]; contact time 24 hour) is reported as 40.3 ppm and the “MIC … (end point)” value ([4]; contact time 48 hour) is reported as 98 ppm. The “MIC … (end point)” value ([1]; contact time 24 hour) was 19.4 ppm, the “MIC … (end point)” value ([1]; contact time 48 hour) was 19.4 ppm and the “MIC … (end point)” value ([2]; contact time 3 days) was 194 ppm. For the same molecule, the “MIC … (end point)” value ([2]; contact time 7 days) was 603 ppm and the “MIC … (end point)” value [6] was 6.9 ppm.
`Cn1sccc1=O` [MIT, 2-methyl-4-isothiazolin-3-one, reference compound] was tested, and the MIC ([4]; ATCC10231, 24 h) was 288 µg/mL, the MIC ([4]; ATCC10231, 48 h) was 403 µg/mL and the MIC ([1]; ATCC6538, 24 h) was 34.5 µg/mL. It also gave an MIC ([1]; ATCC6538, 48 h) of 34.5 µg/mL, an MIC ([2]; ATCC16404, 72 h) of 493 µg/mL and an MIC ([2]; ATCC16404, 168 h) of 603 µg/mL. The MIC ([3]; Pseudomonas aeruginosa, ATCC15442, 48 h, read-out: MIC of component acting alone (end point)) was 24.7 µg/mL.
`O=CCCCC=O` [Glutaraldehyde] was tested, and the “Ca (Component A alone)” value [4, 18] was 88, the “Ca (Component A alone)” value [4, 19] was 88 and the “Ca (Component A alone)” value [1, 18] was 13. The “Ca (Component A alone)” value [1, 19] was 20, the “Ca (Component A in combination)” value ([2]; Glutaraldehyde combined with Ag-polymer formulation, contact time 3 days) was 425 and the “Ca (Component A in combination)” value ([2]; Glutaraldehyde combined with Ag-polymer formulation, contact time 7 days) was 525. The “Ca (Component A alone)” value ([2]; Table 11, Glutaraldehyde alone, contact time 3 days) was 525, the “Ca (Component A alone)” value ([2]; Table 11, Glutaraldehyde alone, contact time 7 days) was 650 and the “Ca (Component A in combination)” value ([3]; Glutaraldehyde combined with Ag-polymer formulation, contact time 24 hour) was 13. For the same molecule, the “Ca (Component A in combination)” value ([3]; Glutaraldehyde combined with Ag-polymer formulation, contact time 48 hour) was 16, the “Ca (Component A alone)” value [3, 18] was 16 and the “Ca (Component A alone)” value [3, 19] was 20.
For “C9-C15 alkyltolylmethyltrimethylammonium chloride [reference compound]”, the “MIC … (end point)” value ([5]; contact time 24 hour) was 6 ppm, the “MIC … (end point)” value ([5]; contact time 48 hour) was 6 ppm and the “MIC … (end point)” value ([4]; contact time 24 hour) was 98 ppm. The “MIC … (end point)” value ([1]; contact time 24 hour) was 69 ppm, the “MIC … (end point)” value ([2]; contact time 7 days) was 493 ppm and the “MIC … (end point)” value ([3]; contact time 24 hour) was 19.4 ppm. For the same molecule, the “MIC … (end point)” value ([3]; contact time 48 hour) was 19.4 ppm.
